Key:
[1] = in vivo
[2] = PK and formulation studies in Sprague Dawley rats, IM; type: in vivo; settings: rat, single IM 5 mg/kg
Procedure: 2.4 Protein plasma binding […]
2.6 PK and formulation studies - male Sprague rats
Compound 1 was dosed SC at 5 mg free base/kg (dose volume 0.2 or 1 mL/kg; dose vehicle 10% N-methyl-2- pyrrolidinone (NMP), 30% 2-pyrrolidinone, 40% PEG400, 20% deionized water or 10% DMSO, 30% PEG400 and 60% deionized water, respectively) or IM at 5 and 10 mg free base/kg (dose volume 0.2 mL/kg; dose vehicle 10% NMP, 30% 2-pyrrolidinone, 40% PEG400, 20% deionized water or 83.4% 2-pyrrolidinone/polyvinylpyrrolidone (PVP), 16.6% saline or 80% 2-pyrrolidinone/NMP/PVP, 20% (0.05% 2-propanol in saline) to male SD rats (n=3).
Compound 2 was dosed IV at 3 mg free base/kg (dose volume 1 mL/kg; dose vehicle: 10% DMSO, 40% PEG400 and 50% deionized water) or IM at 5, 10 and 20 mg free base/kg (dose volume 0.2 […]
and 0.4 mL/kg; dose vehicle 10% NMP, 30% 2-pyrrolidinone, 40% PEG400, 20% deionized water or 83.4% 2-pyrrolidinone/polyvinylpyrrolidone (PVP), 16.6% saline or 80% 2-pyrrolidinone/NMP/PVP, 20% 0.05% 2-propanol in saline or 40% 0.3M Acetate Buffer, 20% Kolliphor, 20% glycerol formal, 20% 2-pyrrolidinone or 40% 0.3M Acetate Buffer, 20% glycerol formal, 20% 2-pyrrolidinone) to male SD rats (n=3). […]
Compound 2 was dosed IM at 10 mg free base/kg (dose volume 2 mL/10 kg; dose vehicle 40% 0.3 M Acetate Buffer, 20% Kolliphor EL, 20% glycerol formal, 20% 2-pyrrolidone) or IV at 2 mg free base/kg (dose volume 0.4 mL/10 kg; 40% 0.3 M Acetate Buffer, 20% Kolliphor EL, 20% glycerol formal, 20% 2-pyrrolidone) to male ruminating Holstein-Friesian cross animals (n = 3). Blood samples were taken from each animal using 18-G needles into EDTA (K2) vacutainers before dosing […]
into a cool box containing iced water and were processed within 2 h of collection.
2.8 Formulation and tolerability studies for compound 2 (NorthWest Biopharm) A study to identify alternative formulations was conducted. Compound 2, either as the hydrochloride salt or free base, was screened to identify a 50 mg/mL soluble formulation suitable for injection. […]
Kolliphor EL, N-methyl pyrrolidone, 2-pyrrolidone and 11% water at 5 mg/kg was assessed, IM […]
A screen of salt forms as alternatives to the hydrochloride was carried out at Drugabilis. Ten pharmaceutically acceptable counter ions were assessed and three were selected for further study […]
(citrate, fumarate and phosphate) (Figure 9). These alternative salt forms of compound 2 were prepared and formulated in the best vehicle determined by injection site tolerability analysis (0.3M sodium acetate buffer, Kolliphor EL, N-methyl pyrrolidone, 2-pyrrolidone, and 11% water suitable for injection). […]

T. congolense = test: Microcalorimetry of parasite growth; type: cell-based, Trypanosoma congolense
Procedure: These observations offer confidence that rats can be used as a model animal in the drug development path going forward prior to studies in cattle. Exposure following IM injection in rats was sufficient to warrant progression to cattle efficacy studies, although the short half-life raised concerns that the required time above the EC99 blood concentration may not be sufficient for cure following a single IM dose at 10 mg/kg.

Row | SMILES | Mouse oral MTD ([1]; po, 3 days) | Tolerability, maximum tolerated dose study ([1]; mouse, sc) | Cmax ([2]; male, blood, Sprague Dawley rats, 10% NMP, 30% 2-pyrrolidinone, 40% PEG400, 20% water, mean) | AUC(0-t) ([2]; male, blood, Sprague Dawley rats, 10% NMP, 30% 2-pyrrolidinone, 40% PEG400, 20% water, mean, read-out: AUC0-8 (converted)) | Time at which free concentration in blood <EC99 ([2]; formulation A: 83.4% PVP/2-pyrrolidone, 16.6% saline) | Time at which free concentration in blood <EC99 ([2]; formulation B: 80% vehicle 1 (NMP:2-pyrrolidone): 20% vehicle 2) | Effect on parasites, microcalorimetry (T. congolense; 10 ng/mL) | Effect on parasites, microcalorimetry (T. congolense; 30 ng/mL) | Effect on parasites, microcalorimetry (T. congolense; 100 ng/mL)
1 | CC(C)CS(=O)(=O)N[C@H]1CC[C@H](Nc2nc(N)c(C(=O)c3c(F)cccc3F)s2)CC1 [Compound 1, N-((trans)-4-((4-Amino-5-(2,6-difluorobenzoyl)thiazol-2-yl)amino)cyclohexyl)-2-methylpropane-1-sulfonamide] | >300 mg/kg | No tolerability issues | 92 ng/mL | 354 ng·h/mL | 3 h | 4 h |  |  | 
2 | CC(C)CS(=O)(=O)N[C@H]1CC[C@H](Nc2nc(N)c(C(=O)c3c(F)cc(CN(C)C)cc3F)s2)CC1 [Compound 2, N-(trans)-[4-[[4-Amino-5-[4-(dimethylaminomethyl)-2,6-difluoro-benzoyl]thiazol-2-yl]amino]cyclohexyl]-2-methyl-propane-1-sulfonamide] |  |  |  |  |  |  | slowed parasite growth | rapid kill | rapid kill

From article PMC9014415, “Repositioning of a Diaminothiazole Series Confirmed to Target the Cyclin-Dependent Kinase CRK12 for Use in the Treatment of African Animal Trypanosomiasis” (Journal of Medicinal Chemistry, 2022)
